The subject of experiment [1] is methicillin resistant Staphylococcus aureus (MRSA) strain USA300 (NRS384). To be noted: MRSA USA300 (NRS384), 35° C., 22 hours. The gist of the method:
(§1)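 CLSI broth microdilution in cation-adjusted Mueller Hinton Broth with 0.002% Tween-80, two-fold dilutions starting at 64 μg/ml.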

The subject of experiment [2] is Escherichia coli strain MC4100 IMP-4213, which harbors an LptD mutation. The conditions noted are these: E. coli MC4100 IMP-4213, 35° C., 22 hours. Put shortly: as §1
Another experiment has as its target T1, E. coli SPase (Escherichia coli, UniProt P00803).
T1 construct: Full length His-tagged E. coli SPase proteins; His; made in house; host or cells: E. coli BL21(DE3)
The experiment can be described thus: Biochemical SPase activity assay, fluorogenic peptide substrate, E. coli enzyme. The conditions noted are these: 20 μM substrate, 10 minutes preincubation, read-out: IC 50 (nM) E. coli. On the procedure: Full length His-tagged E. coli SPase proteins were expressed in E. coli BL21(DE3) containing the plasmid pET23-lepB. Briefly, saturated overnight cultures grown in 20 ml of Luria-Bertani medium supplemented with ampicillin were subcultures into 1.5 L of Luria-Bertani, and shaken at 37° C. until an optical density at 600 nm of 0.4-0.5 was achieved.
(§2) Signal peptidase enzyme activity of the above proteins was measured using two fluorogenic peptide substrates (decanoyl-LSSPAYNO2A ? ADKabzPD and decanoyl-LTPTAYNO2A ? ASKKabzDD), where abz is the fluorescence donor 2-aminobenzamide, YNO2 is the fluorescence acceptor 3-nitrotyrosine, and the cleavage site is indicated with an arrow. Enzyme mix solution was prepared by diluting 2.5 nM of Escherichia coli or Staphylococcus aureus SPase protein into reaction buffers consisting of 20 mM PO4 pH 7.4, 100 mM NaCl, and 1% Elugent™ or octyl phenoxypolyethoxylethanol detergent at a concentration of 0.25% or 0.0625%. Reactions were initiated by the addition of substrate to a final concentration of 20 μM. Reaction progress was monitored by measuring the increase in fluorescence signal (excitation at 314 nm, emission at 416 nm) using a SpectraMax M2 fluorescence microplate reader. To determine IC50 values of test compounds, compound stock solutions were prepared in DMSO at a concentration of 1 mM. Three-folder serial dilutions of test compounds, starting at 10 μM, were prepared in enzyme mix solution and incubated at room temperature for 10 minutes. Following this incubation, fluorogenic substrate was added to a final concentration of 20 μM and the increase in fluorescence, corresponding to substrate cleavage, was monitored continuously at room temperature for 1 hour. Initial reaction rates were calculated based on the rate of increase in fluorescence during the reaction. Reaction rates were plotted as a function of compound concentration, and IC50 values are determined nonlinear regression analysis (SoftMaxPro 5.4, Molecular Devices™) of the sigmoidal dose-response curve.

A further experiment deals with S. aureus SPase (Staphylococcus aureus, UniProt P0A070). The experiment in a line: biochemical. To be noted: IC 50 (nM) S. aureus, 20 μM substrate, 10 minutes preincubation. How it is done: Full length His-tagged S. aureus SPase protein was expressed similarly from E. coli BL21(DE3) containing the plasmid pCDF1-SaSpsB and purified similarly to the E. coli protein with the following exceptions. SPase protein was solubilized using 300 mM NaCl, 20 mM Tris pH 8.06, 5 mM Imidazole, 10% glycerol, 1% Triton X-100, prior to purification in Ni-NTA Superflow resin and resin bound protein was washed in a similar buffer containing 1% Elugent in place of Triton X-100 prior to protein eluted in wash buffer supplemented with 300 mM imidazole. […] All protein concentrations were determined by BCA assay.
S. aureus SPase, sequence (P0A070 whole entry): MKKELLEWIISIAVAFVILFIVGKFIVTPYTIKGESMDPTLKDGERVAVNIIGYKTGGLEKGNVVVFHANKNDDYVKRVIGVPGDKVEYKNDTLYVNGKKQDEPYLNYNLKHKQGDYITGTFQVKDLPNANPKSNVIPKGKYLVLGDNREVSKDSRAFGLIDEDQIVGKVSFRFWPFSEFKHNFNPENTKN
as §2

≈ marks a conversion by molar mass, not a printed value. Read-outs that look alike come from different tables or passages of the source. *1 amine or outer side, *2 acyl side, *3 side chain or, on linkers, in order; H or OH if unused. Where a SMILES comes first, the peptide text is derived from it. [ ]: non-standard residue; d: D form. The star is where a group is joined. boroAla((+)-pinanediol) = C[C@H](N*)B1O[C@@H]2C[C@@H]3C[C@@H](C3(C)C)[C@]2(C)O1; Biphenylcarbonyl(4'-Bu) = CCCCc1ccc(-c2ccc(C(=O)*)cc2)cc1; Benzoyl(4-(4-Cl-Ph)) = O=C(c1ccc(-c2ccc(Cl)cc2)cc1)*; NH(2-(2-pyridyl)ethyl) = c1ccc(CCN*)nc1; X11 = CCCCc1ccc(-c2nc(C(=O)*)cs2)cc1; X14 = O=C(c1ccc(Oc2ccc(Cl)cc2)cc1)*; X1 = C[C@H](N[*:1])C(=O)C(=O)[*:2]; X12 = C[C@H](N*)C(=O)c1nc2ccccc2o1; X3 = CCCCc1ccc(C2CCN(*)CC2)cc1; X9 = CC1(c2ccccc2)CCN(*)CC1; Decanoyl = CCCCCCCCCC(=O)*; boroAla = C[C@H](N*)B(O)O; Octanoyl = CCCCCCCC(=O)*; X8 = NCCCCCCCCCCCCC(=O)*; Dab = NCC[C@H](N)C(=O)O; Dap = NC[C@H](N)C(=O)O; CO = O=C([*:1])[*:2]; NHtBu = CC(C)(C)N*; NHcPr = C1CC1N*; Sar = CNCC(=O)O; NHBu = CCCCN*; X13 = COCCCN*

T1 sequence (P00803 whole entry): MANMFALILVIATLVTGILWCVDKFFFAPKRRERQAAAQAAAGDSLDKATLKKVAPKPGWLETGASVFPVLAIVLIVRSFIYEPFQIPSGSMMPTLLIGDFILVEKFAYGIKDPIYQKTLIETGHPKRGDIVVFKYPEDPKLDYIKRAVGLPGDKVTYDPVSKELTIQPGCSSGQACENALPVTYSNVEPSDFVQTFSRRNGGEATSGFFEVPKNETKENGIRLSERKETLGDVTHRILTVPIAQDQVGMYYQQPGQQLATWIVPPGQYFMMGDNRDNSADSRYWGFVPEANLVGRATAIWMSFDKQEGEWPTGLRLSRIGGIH

`CCCCCCCCCC(=O)N[C@@H](CCN)C(=O)N[C@H](C(=O)N[C@@H](C)C(=O)N[C@@H](CCCCN)C(=O)N[C@@H](C)B(O)O)[C@@H](C)O` [Compound 120] (Decanoyl-[Dab]TAK-boroAla): the “MIC (μg/mL) S. aureus” value in experiment [1] turned out to be 2.8 µg/mL (≈ 4.35 µM). In experiment [2], the “MIC (μg/mL) E. coli” value was 11 µg/mL (≈ 17.1 µM). In addition, the results for the IC50 on E. coli SPase and against S. aureus SPase were 21 nM and 120 nM, respectively.
The like results for `C[C@H](NC(=O)[C@H](CCCCN)NC(=O)[C@H](C)NC(=O)[C@@H](NC(=O)[C@H](CCN)NC(=O)CCCCCCCCCCCCN)[C@@H](C)O)B1O[C@@H]2C[C@@H]3C[C@@H](C3(C)C)[C@]2(C)O1` [Compound 115] (X8-[Dab]TAK-{boroAla((+)-pinanediol)}) were, in that order, 11 µg/mL (≈ 13.2 µM), more than 64 µg/mL, 330 nM and 590 nM.
The like results for `CCCCNC(=O)C(=O)[C@H](C)NC(=O)[C@H](CCCCN)NC(=O)[C@H](C)NC(=O)[C@@H](NC(=O)[C@H](CN)NC(=O)c1ccc(-c2ccc(Cl)cc2)cc1)[C@@H](C)O` [Compound 105] ({Benzoyl(4-(4-Cl-Ph))}-[Dap]TAK[X1]-NHBu) were, in that order, 51 µg/mL (≈ 65.9 µM), 64 µg/mL (≈ 82.8 µM), 900 nM and 1300 nM.
For `C[C@H](NC(=O)[C@@H](NC(=O)[C@H](CN)NC(=O)c1ccc(-c2ccc(Cl)cc2)cc1)[C@@H](C)O)C(=O)N[C@@H](CCCCN)C(=O)N[C@@H](C)C(=O)C(=O)NC1CC1` [Compound 109] ({Benzoyl(4-(4-Cl-Ph))}-[Dap]TAK[X1]-NHcPr), in that order: 32 µg/mL (≈ 42.3 µM), 32 µg/mL (≈ 42.3 µM), 820 nM and 2000 nM.
Turning to `CCCCc1ccc(-c2ccc(C(=O)N[C@@H](CCN)C(=O)N(C)CC(=O)N[C@@H](C)C(=O)N[C@@H](CCCCN)C(=O)N[C@@H](C)B3O[C@@H]4C[C@@H]5C[C@@H](C5(C)C)[C@]4(C)O3)cc2)cc1` [Compound 124] ({Biphenylcarbonyl(4'-Bu)}-[Dab][Sar]AK-{boroAla((+)-pinanediol)}), the “MIC (μg/mL) S. aureus” value in experiment [1] turned out to be 0.8 µg/mL (≈ 0.964 µM). For the same compound, the “MIC (μg/mL) E. coli” value in experiment [2] came to 0.6 µg/mL (≈ 0.723 µM). Also, the IC50 at E. coli SPase is 110 nM; at S. aureus SPase, 2000 nM.
The like results for `COCCCNC(=O)C(=O)[C@H](C)NC(=O)[C@H](CCCCN)NC(=O)[C@H](C)NC(=O)[C@@H](NC(=O)[C@H](CN)NC(=O)c1ccc(-c2ccc(Cl)cc2)cc1)[C@@H](C)O` [Compound 101] ({Benzoyl(4-(4-Cl-Ph))}-[Dap]TAK[X1]-X13) were, in that order, more than 64 µg/mL, more than 64 µg/mL, 870 nM and 1600 nM.
The like results for `CCCCc1ccc(C2CCN(C(=O)N[C@@H](CCCCN)C(=O)N[C@H](C(=O)N[C@@H](C)C(=O)N[C@@H](CCCCN)C(=O)N[C@@H](C)B3O[C@@H]4C[C@@H]5C[C@@H](C5(C)C)[C@]4(C)O3)[C@@H](C)O)CC2)cc1` [Compound 127] ({X3-CO}-KTAK-{boroAla((+)-pinanediol)}) were, in that order, 2 µg/mL (≈ 2.23 µM), 32 µg/mL (≈ 35.8 µM), 64 nM and 210 nM.
For `CCCCCCCC(=O)N[C@@H](CCN)C(=O)N[C@H](C(=O)N[C@@H](C)C(=O)N[C@@H](CCCCN)C(=O)N[C@@H](C)B1O[C@@H]2C[C@@H]3C[C@@H](C3(C)C)[C@]2(C)O1)[C@@H](C)O` [Compound 114] (Octanoyl-[Dab]TAK-{boroAla((+)-pinanediol)}), in that order: 13 µg/mL (≈ 17.3 µM), 32 µg/mL (≈ 42.7 µM), 64 nM and 250 nM.
For `CCCCc1ccc(-c2ccc(C(=O)N[C@@H](CCN)C(=O)N[C@H](C(=O)N[C@@H](C)C(=O)N[C@@H](CCCCN)C(=O)N[C@@H](C)C(=O)C3OC3C)[C@@H](C)O)cc2)cc1` (single isomer, unassigned) [Compound 203 P1], the “MIC (μg/mL) S. aureus” value in experiment [1] (listed as 203 P1) turned out to be 1.2 µg/mL (≈ 1.57 µM). Further, the “MIC (μg/mL) E. coli” value in experiment [2] (listed as 203 P1) worked out at 11 µg/mL (≈ 14.4 µM). For the same compound, the IC50 amounted to 440 nM on E. coli SPase and 95 nM against S. aureus SPase.
Turning to `C[C@H](NC(=O)[C@H](CCCCN)NC(=O)[C@H](C)NC(=O)[C@@H](NC(=O)[C@H](CN)NC(=O)c1ccc(Oc2ccc(Cl)cc2)cc1)[C@@H](C)O)B1O[C@@H]2C[C@@H]3C[C@@H](C3(C)C)[C@]2(C)O1` [Compound 129] (X14-[Dap]TAK-{boroAla((+)-pinanediol)}), the “MIC (μg/mL) S. aureus” value in experiment [1] turned out to be 2.8 µg/mL (≈ 3.33 µM). For the same compound, the “MIC (μg/mL) E. coli” value in experiment [2] worked out at 4 µg/mL (≈ 4.76 µM). For the same compound, the figures for the IC50 on E. coli SPase and at S. aureus SPase were 3.6 nM and 120 nM, respectively.
The like results for `C[C@H](NC(=O)[C@@H](NC(=O)[C@H](CN)NC(=O)c1ccc(-c2ccc(Cl)cc2)cc1)[C@@H](C)O)C(=O)N[C@@H](CCCCN)C(=O)N[C@@H](C)C(=O)C(=O)NCCc1ccccn1` [Compound 104] ({Benzoyl(4-(4-Cl-Ph))}-[Dap]TAK[X1]-{NH(2-(2-pyridyl)ethyl)}) were, in that order, 64 µg/mL (≈ 77.8 µM), more than 64 µg/mL, 950 nM and 840 nM.
For `C[C@H](NC(=O)[C@@H](NC(=O)[C@H](CN)NC(=O)c1ccc(-c2ccc(Cl)cc2)cc1)[C@@H](C)O)C(=O)N[C@@H](CCCCN)C(=O)N[C@@H](C)C(=O)c1nc2ccccc2o1` [Compound 214] ({Benzoyl(4-(4-Cl-Ph))}-[Dap]TAK-X12), the “MIC (μg/mL) S. aureus” value in experiment [1] was determined as 64 µg/mL (≈ 80.9 µM). Further, the “MIC (μg/mL) E. coli” value in experiment [2] was found to be 32 µg/mL (≈ 40.4 µM). The IC50 worked out at 180 nM on E. coli SPase and 630 nM against S. aureus SPase.
The like results for `C[C@H](NC(=O)[C@H](CCCCN)NC(=O)[C@H](C)NC(=O)[C@@H](NC(=O)[C@H](CCCCN)NC(=O)N1CCC(C)(c2ccccc2)CC1)[C@@H](C)O)B1O[C@@H]2C[C@@H]3C[C@@H](C3(C)C)[C@]2(C)O1` [Compound 130] ({X9-CO}-KTAK-{boroAla((+)-pinanediol)}) were, in that order, 64 µg/mL (≈ 75 µM), more than 64 µg/mL, 270 nM and 280 nM.
For `C[C@H](NC(=O)[C@@H](NC(=O)[C@H](CN)NC(=O)c1ccc(-c2ccc(Cl)cc2)cc1)[C@@H](C)O)C(=O)N[C@@H](CCCCN)C(=O)N[C@@H](C)C(=O)C(=O)NC(C)(C)C` [Compound 108] ({Benzoyl(4-(4-Cl-Ph))}-[Dap]TAK[X1]-NHtBu), in that order: more than 64 µg/mL, more than 64 µg/mL, 930 nM and 3700 nM.
For `CCCCc1ccc(-c2nc(C(=O)N[C@@H](CCN)C(=O)N[C@H](C(=O)N[C@@H](C)C(=O)N[C@@H](CCCCN)C(=O)N[C@@H](C)B3O[C@@H]4C[C@@H]5C[C@@H](C5(C)C)[C@]4(C)O3)[C@@H](C)O)cs2)cc1` [Compound 121] (X11-[Dab]TAK-{boroAla((+)-pinanediol)}), in that order: 0.4 µg/mL (≈ 0.461 µM), 1.3 µg/mL (≈ 1.5 µM), 54 nM and 280 nM.
In the case of `C[C@H](NC(=O)[C@H](CCCCN)NC(=O)[C@H](C)NC(=O)[C@@H](NC(=O)[C@H](CCN)NC(=O)c1ccc(-c2ccc(Cl)cc2)cc1)[C@@H](C)O)B(O)O` [Compound 119] ({Benzoyl(4-(4-Cl-Ph))}-[Dab]TAK-boroAla), the “MIC (μg/mL) S. aureus” value in experiment [1] was determined as 1 µg/mL (≈ 1.42 µM). Also, the “MIC (μg/mL) E. coli” value in experiment [2] turned out to be 2 µg/mL (≈ 2.84 µM). Besides, the IC50 worked out at 10 nM on E. coli SPase and 120 nM against S. aureus SPase.

The record behind these values is patent US20160194358A1, “LINEAR PEPTIDE ANTIBIOTCS” (priority 2013, published 2016).
